In publication PMC10373739, “The AKT inhibitor, MK-2206, attenuates ABCG2-mediated drug resistance in lung and colon cancer cells” (Frontiers in Pharmacology, 2023):
pEC50: −log10 of the molar value.

Molecular target: T1, ABCG2 transporter (Homo sapiens, UniProt Q9UNQ0)
T1 sequence (Q9UNQ0 1-655): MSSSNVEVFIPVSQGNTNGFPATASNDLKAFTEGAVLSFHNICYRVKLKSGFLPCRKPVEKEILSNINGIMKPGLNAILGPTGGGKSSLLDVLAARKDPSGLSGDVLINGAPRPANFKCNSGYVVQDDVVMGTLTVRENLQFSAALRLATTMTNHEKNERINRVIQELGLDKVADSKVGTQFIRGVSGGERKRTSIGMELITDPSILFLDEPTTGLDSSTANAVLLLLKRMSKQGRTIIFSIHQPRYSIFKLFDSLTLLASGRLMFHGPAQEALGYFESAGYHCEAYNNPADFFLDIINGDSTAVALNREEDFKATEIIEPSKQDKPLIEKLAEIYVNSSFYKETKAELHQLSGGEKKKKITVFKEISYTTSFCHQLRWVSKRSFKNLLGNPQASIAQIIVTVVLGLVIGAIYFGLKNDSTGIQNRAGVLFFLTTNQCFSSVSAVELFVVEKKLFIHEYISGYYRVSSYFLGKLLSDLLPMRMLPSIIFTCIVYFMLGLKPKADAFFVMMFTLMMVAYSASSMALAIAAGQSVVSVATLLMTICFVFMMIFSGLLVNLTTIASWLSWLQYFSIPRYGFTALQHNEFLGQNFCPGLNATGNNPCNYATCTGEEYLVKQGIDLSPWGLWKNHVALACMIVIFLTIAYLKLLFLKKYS
Test: vanadate-sensitive ATPase assay (stimulation of basal activity) in ABCG2 membrane vesicles from High Five insect cells
Assay type: biochemical

NC1(c2ccc(-c3nc4ccn5c(=O)[nH]nc5c4cc3-c3ccccc3)cc2)CCC1 [MK-2206]
pEC50: 6.34
